# Data taken from patent publication US20170190671A1, “BIS(ARYL)CATECHOL DERIVATIVES AS HERBICIDES” (E I DU PONT DE NEMOURS AND COMPANY, priority 2014, published 2017).
# How the values were obtained:
# Details in all cases: scale 0 to 100
# [1] = system: Italian ryegrass (Lolium multiflorum); test: Test D preemergence; format: in vivo
# In short: (§1)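 Greenhouse herbicide screen. Pre: silt loam, spray at planting. Post: 1–4 leaf, 2–18 cm. Readout: visual % control (0–100) at 14–21 DAT vs controls.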
# [2] = system: winter barley (Hordeum vulgare); test: Test D preemergence; format: in vivo
# In short: as §1
# [3] = system: wild radish (Raphanus raphanistrum); test: Test D preemergence; format: in vivo
# In short: as §1
# [4] = system: green foxtail (Setaria viridis); test: Test D preemergence; format: in vivo
# In short: as §1
# [5] = system: field violet (Viola arvensis); test: Test D preemergence; format: in vivo
# In short: as §1
# [6] = system: lambsquarters (Chenopodium album); test: Test D preemergence; format: in vivo
# In short: as §1
# [7] = system: windgrass (Apera spica-venti); test: Test D preemergence; format: in vivo
# In short: as §1
# [8] = system: winter wheat (Triticum aestivum); test: Test D preemergence; format: in vivo
# In short: as §1
# [9] = system: deadnettle (henbit deadnettle, Lamium amplexicaule); test: Test D preemergence; format: in vivo
# In short: as §1
# [10] = system: galium (catchweed bedstraw, Galium aparine); test: Test D preemergence; format: in vivo
# In short: as §1
# [11] = system: spring barley (Hordeum vulgare); test: Test D preemergence; format: in vivo
# In short: as §1
# [12] = system: spring wheat (Triticum aestivum); test: Test D preemergence; format: in vivo
# In short: as §1
# kochia (Kochia scoparia) = test: Test D preemergence; format: in vivo
# In short: as §1
# [13] = system: field poppy (Papaver rhoeas); test: Test D preemergence; format: in vivo
# In short: as §1
# [14] = system: chamomile (scentless chamomile, Matricaria inodora); test: Test D preemergence; format: in vivo
# In short: as §1
# [15] = system: pigweed (Amaranthus retroflexus); test: Test D preemergence; format: in vivo
# In short: as §1
# [16] = system: oilseed rape (Brassica napus); test: Test D preemergence; format: in vivo
# In short: as §1
# wild oat (Avenafatua) = test: Test D postemergence; format: in vivo, Avena fatua
# From the text: Seeds of plant species selected from bluegrass (annual bluegrass, Poa annua), blackgrass (Alopecurus myosuroides), canarygrass (Phalaris minor), chickweed (common chickweed, Stellaria media), cutleaf geranium (Geranium dissectum), galium (catchweed bedstraw, Galium aparine), downy bromegrass (Bromus tectorum), field poppy (Papaver rhoeas), field violet (Viola arvensis), green foxtail (Setaria viridis), deadnettle (henbit deadnettle, Lamium amplexicaule), Italian ryegrass (Lolium multiflorum), kochia (Kochia scoparia), lambsquarters (Chenopodium album), oilseed rape (Brassica napus), pigweed (Amaranthus retroflexus), chamomile (scentless chamomile, Matricaria inodora), Russian thistle (Salsola kali), speedwell (bird's-eye speedwell, Veronica persica), spring barley (Hordeum vulgare), spring wheat (Triticum aestivum), wild buckwheat (Polygonum convolvulus), wild mustard (Sinapis arvensis), wild oat (Avenafatua), wild radish (Raphanus raphanistrum), windgrass (Apera spica-venti), winter barley (Hordeum vulgare), and winter wheat (Triticum aestivum) were planted into a silt loam soil and treated preemergence with test chemicals formulated in a non-phytotoxic solvent mixture which included a surfactant.
# At the same time, these species were planted in pots containing Redi-Earth® planting medium (Scotts Company, 14111 Scottslawn Road, Marysville, Ohio 43041) comprising spaghnum peat moss, vermiculite, wetting agent and starter nutrients and treated with postemergence applications of the test chemicals formulated in the same manner. Plants ranged in height from 2 to 18 cm (1- to 4-leaf stage). Treated plants and controls were maintained in a controlled growth environment for 14 to 21 days after which time all species were compared to controls and visually evaluated. Plant response ratings, summarized in Table D, are based on a scale of 0 to 100 where 0 is no effect and 100 is complete control. A dash (-) response means no test result.
compound,measurement,setting,value
FC(F)(F)c1cnc(Oc2c(Br)cccc2Oc2ncc(Cl)cn2)nc1 [Compound 24],"Plant response rating, Ryegrass, Italian",[1]; 16 g ai/ha,10
same,"Plant response rating, Ryegrass, Italian",[1]; 31 g ai/ha,15
same,"Plant response rating, Ryegrass, Italian",[1]; 62 g ai/ha,25
same,"Plant response rating, Ryegrass, Italian",[1]; 125 g ai/ha,65
same,"Plant response rating, Barley, Winter",[2]; 16 g ai/ha,10
same,"Plant response rating, Barley, Winter",[2]; 31 g ai/ha,15
same,"Plant response rating, Barley, Winter",[2]; 62 g ai/ha,25
same,"Plant response rating, Barley, Winter",[2]; 125 g ai/ha,70
same,"Plant response rating, Radish, Wild",[3]; 16 g ai/ha,0
same,"Plant response rating, Radish, Wild",[3]; 31 g ai/ha,20
same,"Plant response rating, Radish, Wild",[3]; 62 g ai/ha,45
same,"Plant response rating, Radish, Wild",[3]; 125 g ai/ha,70
same,"Plant response rating, Foxtail, Green",[4]; 16 g ai/ha,10
same,"Plant response rating, Foxtail, Green",[4]; 31 g ai/ha,35
same,"Plant response rating, Foxtail, Green",[4]; 62 g ai/ha,75
same,"Plant response rating, Foxtail, Green",[4]; 125 g ai/ha,85
same,"Plant response rating, Field Violet",[5]; 16 g ai/ha,20
same,"Plant response rating, Field Violet",[5]; 31 g ai/ha,20
same,"Plant response rating, Field Violet",[5]; 62 g ai/ha,75
same,"Plant response rating, Field Violet",[5]; 125 g ai/ha,100
same,"Plant response rating, Lambsquarters",[6]; 16 g ai/ha,100
same,"Plant response rating, Lambsquarters",[6]; 31 g ai/ha,100
same,"Plant response rating, Lambsquarters",[6]; 62 g ai/ha,100
same,"Plant response rating, Lambsquarters",[6]; 125 g ai/ha,100
same,"Plant response rating, Windgrass",[7]; 16 g ai/ha,5
same,"Plant response rating, Windgrass",[7]; 31 g ai/ha,15
same,"Plant response rating, Windgrass",[7]; 62 g ai/ha,25
same,"Plant response rating, Windgrass",[7]; 125 g ai/ha,85
same,"Plant response rating, Wheat, Winter",[8]; 16 g ai/ha,0
same,"Plant response rating, Wheat, Winter",[8]; 31 g ai/ha,0
same,"Plant response rating, Wheat, Winter",[8]; 62 g ai/ha,0
same,"Plant response rating, Wheat, Winter",[8]; 125 g ai/ha,10
same,"Plant response rating, Deadnettle",[9]; 16 g ai/ha,30
same,"Plant response rating, Deadnettle",[9]; 31 g ai/ha,60
same,"Plant response rating, Deadnettle",[9]; 62 g ai/ha,100
same,"Plant response rating, Deadnettle",[9]; 125 g ai/ha,100
same,"Plant response rating, Galium",[10]; 16 g ai/ha,0
same,"Plant response rating, Galium",[10]; 31 g ai/ha,25
same,"Plant response rating, Galium",[10]; 62 g ai/ha,85
same,"Plant response rating, Galium",[10]; 125 g ai/ha,70
same,"Plant response rating, Barley, Spring",[11]; 16 g ai/ha,0
same,"Plant response rating, Barley, Spring",[11]; 31 g ai/ha,20
same,"Plant response rating, Barley, Spring",[11]; 62 g ai/ha,30
same,"Plant response rating, Barley, Spring",[11]; 125 g ai/ha,85
same,"Plant response rating, Wheat, Spring",[12]; 16 g ai/ha,0
same,"Plant response rating, Wheat, Spring",[12]; 31 g ai/ha,0
same,"Plant response rating, Wheat, Spring",[12]; 62 g ai/ha,0
same,"Plant response rating, Wheat, Spring",[12]; 125 g ai/ha,40
same,"Plant response rating, Kochia",kochia (Kochia scoparia); 16 g ai/ha,0
same,"Plant response rating, Kochia",kochia (Kochia scoparia); 31 g ai/ha,25
same,"Plant response rating, Kochia",kochia (Kochia scoparia); 62 g ai/ha,60
same,"Plant response rating, Kochia",kochia (Kochia scoparia); 125 g ai/ha,100
same,"Plant response rating, Field Poppy",[13]; 16 g ai/ha,75
same,"Plant response rating, Field Poppy",[13]; 31 g ai/ha,100
same,"Plant response rating, Field Poppy",[13]; 62 g ai/ha,100
same,"Plant response rating, Field Poppy",[13]; 125 g ai/ha,100
same,"Plant response rating, Chamomile",[14]; 16 g ai/ha,55
same,"Plant response rating, Chamomile",[14]; 31 g ai/ha,100
same,"Plant response rating, Chamomile",[14]; 62 g ai/ha,100
same,"Plant response rating, Chamomile",[14]; 125 g ai/ha,100
same,"Plant response rating, Pigweed",[15]; 16 g ai/ha,60
same,"Plant response rating, Pigweed",[15]; 31 g ai/ha,100
same,"Plant response rating, Pigweed",[15]; 62 g ai/ha,100
same,"Plant response rating, Pigweed",[15]; 125 g ai/ha,100
same,"Plant response rating, Oilseed Rape",[16]; 16 g ai/ha,0
same,"Plant response rating, Oilseed Rape",[16]; 31 g ai/ha,15
same,"Plant response rating, Oilseed Rape",[16]; 62 g ai/ha,20
same,"Plant response rating, Oilseed Rape",[16]; 125 g ai/ha,80
same,"Plant response rating, Oat, Wild",wild oat (Avenafatua); 16 g ai/ha,15
same,"Plant response rating, Oat, Wild",wild oat (Avenafatua); 31 g ai/ha,20
same,"Plant response rating, Oat, Wild",wild oat (Avenafatua); 62 g ai/ha,25
same,"Plant response rating, Oat, Wild",wild oat (Avenafatua); 125 g ai/ha,35
